Test results published in PMC10108821, “Three tyrosine kinase inhibitors cause cardiotoxicity by inducing endoplasmic reticulum stress and inflammation in cardiomyocytes” (BMC Medicine, 2023).

Assays:
HELP hiPSC-CMs = experiment: CardioExcyte 96 microelectrode array: base impedance and extracellular field potential; type: cell-based, human; details: fixed doses: 10 µM, crizotinib and ponatinib 3.16 µM; up to 24 h
Procedure, shortened: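 HELP hiPSC-CMs plated at 50,000 cells/well on 96-well microelectrode arrays, cultured 3-5 days until impedance and field potential stabilized. Recordings before and every 30~60 min after drug addition (added at 2x); beat rate, impedance amplitude, base impedance and FPDc averaged over 3 wells.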

[1] = system: Phospho-eIF2α, XBP1s, ATF6 (cleaved); experiment: Western blot of ER stress effectors in NRCMs; type: cell-based, rat
Protocol: Cells were homogenized in the RIPA lysis buffer (Applygen) containing protease and phosphatase inhibitor cocktails (Bimake). The extract was spun at 12,000xg for 20min at 4°C. Total protein was measured by BCA (Thermofisher) and resolved by sodium dodecyl sulfate–polyacrylamide gel electrophoresis (SDS-PAGE). Proteins were blotted to polyvinylidene difluoride membranes (Amersham). Blots were blocked with non-fat milk (BBI Life Sciences) and incubated with antibodies against ATF6 (proteintech), phospho-eIF2α (ABclonol), XBP1 (ABclonol) and GAPDH (proteintech). Goat anti-rabbit IgG, goat anti-mouse IgG were incubated with the blots for 1 hour at room temperature. After 3 washes with 1xTBST (50 mM Tris-Cl, 150 mM NaCl, 0.1% Tween 20, pH 7.5), the blots were developed with the ECL Plus Kit (Absin). Relative protein expression was quantified by optical density and normalized to GAPDH.

rat left ventricles = experiment: Rat gavage cardiotoxicity model: qRT-PCR in left ventricles; type: in vivo; details: ponatinib 15 mg/kg, sorafenib 50 mg/kg gavage, 3 or 7 days
Protocol: All experiments were performed in accordance with relevant guidelines and regulations approved by the Institutional Animal Care and Use Committee (IACUC) at Peking University Health Science Center. Sprague-Dawley rats (170-200g) were purchased from Beijing Vital River Laboratory Animal Technology. Forty-eight male rats were randomly divided into six groups, with 8 animals per group. […] The gavage was done daily starting at 10am. At the end of the experiments, rats were euthanized by CO2 about 5~6 hours after the last gavage, and then hearts were harvested for further study. Left ventricular muscle was dissected and divided into 3 parts with similar size, one of which was used for RNA extraction and qRT-PCR.
RNA was isolated based on a standard protocol using TRIzol reagent (Vazyme). TRIzol (1ml per 1 well of a 6-well plate) was used to lyse cells and chloroform was added for RNA separation. Samples were shaked vigorously by hand for 15 seconds and incubated at room temperature for 2-3 minutes. RNA was present in the aqueous phase after centrifuge at 12000 x g for 15 minutes. Isopropyl alcohol was mixed to precipitate RNA from the aqueous phase. […] 1 μg total RNA was used for cDNA synthesis using a reverse transcription kit (Bioman). We then measured expression of genes of interest with SYBRR Green qPCR Mix (Bioman) using Applied Biosystems 7500 Quantitative PCR Instrument. […]

NRCMs [2] = experiment: ROS by H2DCFDA staining and flow cytometry; details: 3 h; 10 µM afatinib, 10 µM sorafenib, 5.62 µM ponatinib
Protocol: (§1) For ROS assessment, cells were washed with PBS once and stained with 10μM H2DCFHDA (MCE) in phenol red-free DMEM (Procell) in a humid incubator with 5% CO2 at 37°C for 30 minutes. Cells were washed with PBS twice and dissociated to single cells before flow cytometry analysis at the FITC channel. For lipid peroxidation measurement, cells were washed with PBS once and stained with 2μM C11-bodipy^581/591 (Cayman) in phenol red-free DMEM (Procell) in a humid incubator with 5% CO2 at 37°C for 30 minutes. Cells were washed with PBS twice and dissociated to single cells before flow cytometry analysis at both the FITC and the PE channels. Fluorescence of the oxidized C11-bodipy were acquired through the FITC channel (Ex/Em=488/520nm) and that of the non-oxidized C11-bodipy through the PE channel (Ex/Em=555/624nm).

NRCMs [3] = experiment: Lipid peroxidation by C11-bodipy 581/591 and flow cytometry
Protocol: as §1

Cor.4U hiPSC-CMs = experiment: 3'DGE-UMI RNAseq transcriptome of hiPSC-CMs
[4] = Sprague-Dawley, rat, 24 h, 10 µM

In the case of `CNC(=O)c1cc(Oc2ccc(NC(=O)Nc3ccc(Cl)c(C(F)(F)F)c3)cc2)ccn1` [sorafenib], the “effect on beat rate, contraction, base impedance and corrected field potential duration” value (HELP hiPSC-CMs) was “stopped beating and contraction of hiPSC-CMs after 0.5 h of treatment”, the “duration of activated eIF2α phosphorylation” value [1] was 6 h and the “gene expression of Anp” value (rat left ventricles) was “did not induce a significant change”. For the same compound, the “increase in percent of ROS-high cells” value (NRCMs [2]) was 16.2%, the “change in percent of cells with high lipid peroxidation” value (NRCMs [3]) was “increased slightly” and the “level of lipid peroxidation, TKI alone” value (NRCMs [3]; [4]) was 94.6%. For the same compound, the “level of lipid peroxidation, TKI with trolox” value (NRCMs [3]; [4]) was 88%, the “expression of tRNA aminoacylation gene markers (SARS, GARS)” value (Cor.4U hiPSC-CMs; Cluster 3) was “increased” and the “expression of genes associated with ER stress (ATF4, NUPR1, DDIT3, TRIB3, CHAC1, SESN2, HERPUD1)” value (Cor.4U hiPSC-CMs; high PC1 loadings, ponatinib at high dose) was “upregulated”.
